Reference: PubChem BioAssay (NCI)
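96-well plates; 48 h exposure; 5 concentrations. Endpoints by linear interpolation between flanking doses. Not reached: highest tested concentration assigned. GI50 marks 50% less growth. TGI denotes the concentration required for complete inhibition of growth.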

Columns and labels:
Assay in all cases: NCI-60 cell line screen, 48 h
ACHN renal = tested on: ACHN renal
BT-549 breast = tested on: BT-549 breast
MALME-3M melanoma = tested on: MALME-3M melanoma
HCC-2998 colon = tested on: HCC-2998 colon
KM12 colon = tested on: KM12 colon
NCI/ADR-RES ovarian = tested on: NCI/ADR-RES ovarian
SF-295 CNS = tested on: SF-295 CNS
TK-10 renal = tested on: TK-10 renal
RXF 393 renal = tested on: RXF 393 renal
CCRF-CEM leukemia = tested on: CCRF-CEM leukemia

Structure (SMILES)	GI50 (ACHN renal) [µM]	TGI (ACHN renal) [µM]	GI50 (BT-549 breast) [µM]	TGI (BT-549 breast) [µM]	GI50 (MALME-3M melanoma) [µM]	TGI (MALME-3M melanoma) [µM]	GI50 (HCC-2998 colon) [µM]	TGI (HCC-2998 colon) [µM]	GI50 (KM12 colon) [µM]	TGI (KM12 colon) [µM]	GI50 (NCI/ADR-RES ovarian) [µM]	TGI (NCI/ADR-RES ovarian) [µM]	GI50 (SF-295 CNS) [µM]	TGI (SF-295 CNS) [µM]	GI50 (TK-10 renal) [µM]	TGI (TK-10 renal) [µM]	GI50 (RXF 393 renal) [µM]	TGI (RXF 393 renal) [µM]	TGI (CCRF-CEM leukemia) [µM]	GI50 (CCRF-CEM leukemia) [µM]
COC(=O)[C@@]12OC[C@]34[C@H]([C@@H](O)[C@@H]1O)[C@@]1(C)[C@H](O)C(=O)C=C(C)[C@@H]1C[C@H]3OC(=O)C(OC(C)=O)[C@@H]24 (some centres undefined)	0.0502	0.28	0.0182	0.0561	0.0151	0.0466	0.0168	0.111	0.03	0.136	0.904	8.53	0.0241	0.0847	0.0374	0.197	0.0253	0.0673	–	–
O=c1c2ccccc2c(=O)n2n1CC=CC2	–	> 100	–	–	–	> 100	–	> 100	–	> 100	–	–	–	> 100	–	> 100	–	> 100	> 100	–
O=[N+]([O-])c1ccc2c(c1)Cc1cc(N=Cc3ccc4c(c3)OCO4)ccc1-2	–	> 100	–	> 100	–	> 100	–	–	–	> 100	–	> 100	–	> 100	–	> 100	–	> 100	> 100	–
Clc1ccc(N=Nc2nc3ccccc3nc2N=Nc2ccc(Cl)cc2Cl)c(Cl)c1	–	> 100	–	–	–	> 100	–	> 100	–	> 100	–	–	–	> 100	–	> 100	–	> 100	–	–
NC(=O)c1ccccc1Nc1ccc2nnc(-c3ccncc3)n2n1	6.32	20.7	1.9	3.83	8.38	22.5	16.6	34.5	9.34	21.2	14.7	44.7	–	–	6.81	20.7	3.77	18.1	17.4	3.12
CCN(CC)CCOc1ccc(CCc2cc(OC)c(OC)c(OC)c2)cc1	–	> 100	–	–	–	> 100	–	–	–	> 100	–	–	–	50.5	–	88.9	–	93.2	> 100	–
COc1cc([C@@H]2c3cc4c(cc3[C@@H](OC(=O)c3ccc(N)cc3)C3COC(=O)[C@@H]32)OCO4)cc(OC)c1O (some centres undefined)	–	28.2	–	–	–	63.5	–	36.3	–	44.7	–	–	–	> 95	–	94.2	–	> 95	> 95	–
O=C1C2C3C=C4c5ccccc5N(c5ccccc5)C4(C2C(=O)N1c1ccc(Cl)cc1)[C@H]1C(=O)N(c2ccc(Cl)cc2)C(=O)[C@@H]31 (some centres undefined)	–	–	–	–	–	> 100	–	–	–	> 100	–	–	–	> 100	–	> 100	–	> 100	> 100	–
c1ccc(C(c2ccccc2)c2cccnc2)cc1	–	> 100	–	–	–	> 100	–	> 100	–	> 100	–	–	–	> 100	–	> 100	–	–	> 100	–
COC(=O)/C(=N\NC(=O)C[N+](C)(C)C)C(C(=O)OC)C(=O)C(=O)Nc1ccccc1C(N)=O (centres undefined)	–	> 100	–	–	–	> 100	–	> 100	–	> 100	–	–	–	> 100	–	> 100	–	> 100	> 100	–
O=C(Nc1ccncc1)C(=O)c1cn(Cc2ccc(Cl)cc2)c2ccccc12	0.082	> 100	–	–	0.0414	> 100	0.114	> 100	0.0384	> 100	0.0317	> 100	0.0217	0.0803	0.457	> 100	0.0302	–	> 100	0.0331
O=C(NC(=O)c1cn(CCN(CCO)C(=O)NCCCCCCNC(=O)N(CCO)CCn2cc(C(=O)NC(=O)OCc3ccccc3)c(=O)[nH]c2=O)c(=O)[nH]c1=O)OCc1ccccc1	–	> 100	–	–	–	> 100	–	–	–	–	–	–	–	> 100	–	> 100	–	> 100	> 100	–
CN1CCN(CCOc2ccc(-c3cnc4c(-c5ccc(C(F)(F)F)cc5)cnn4c3)cc2)CC1	1.57	2.91	1.62	3.04	1.48	2.89	1.67	3.34	1.71	3.21	–	–	1.75	3.31	1.72	3.24	1.55	3.07	–	–
CC(=O)C(=Cc1ccc(C=C(C(C)=O)C(C)=O)cc1)C(C)=O	–	3.59	–	4.6	–	4.84	–	7.66	–	6.18	–	11.2	–	7.97	–	5.31	–	3.51	–	–
Cc1ccc(SSc2ccc(C)cc2C(=O)O)c(C(=O)O)c1	–	> 100	–	–	–	> 100	–	–	–	> 100	–	–	–	> 100	–	> 100	–	> 100	> 100	–
COc1cccc(-c2nn(-c3ccccc3)cc2-c2ccnc(NCCCNC(=O)Nc3ccc(Cl)c(Cl)c3)c2)c1	4.23	22.4	3.2	11.2	1.86	3.9	2.17	4.22	2.75	11.3	2.19	5.39	2.38	6.43	4.51	17.1	1.81	4.87	–	–
CC1OC(OC2C[C@](O)(C(=O)CF)Cc3c(O)c4c(c(O)c32)C(=O)c2ccccc2C4=O)CC(N)C1O (some centres undefined)	–	0.0777	–	0.918	–	0.191	–	0.488	–	0.239	–	–	–	4.74	–	0.497	–	0.268	0.0133	–
N.N.N.N.N.[Cl-].[Co+3].c1ccc(-c2nn[n-]n2)cc1	> 100	> 100	–	–	> 100	> 100	> 100	> 100	> 100	> 100	–	–	> 100	> 100	> 100	> 100	> 100	> 100	> 100	> 100
